ChEMBL document CHEMBL3861944 (Medchemcomm, 2016)

What was measured:
ASPC1 [1] = assay: Pro-apoptotic activity in human AsPC1 cells assessed as necrotic cells at 75 uM after 24 hrs by annexin V/propidium iodide staining-based flow cytometric method (reference value: 2.1 +/- 0.4%); format: functional
THP-1 [2] = assay: Pro-apoptotic activity in human THP1 cells assessed as early apoptotic cells at 3 uM after 24 hrs by annexin V/propidium iodide staining-based flow cytometric method (reference value: 0.4 +/- 0.1%); format: functional
ASPC1 [3] = assay: Induction of pro-differentiation of human AsPC1 cells assessed as CD44 expression at 1 uM after 3 days by immunostaining-based micro-capillary flow cytometric method (reference value: 87 +/- 1%); format: functional
[4] = Cell cycle arrest in human THP1 cells assessed as accumulation at G0/G1 phase at 0.5 uM after 24 hrs by flow cytometric method (reference value: 51 +/- 6%); format: functional, cell-based; conditions: THP-1
[5] = Cell cycle arrest in human AsPC1 cells assessed as accumulation at S phase at 30 uM after 24 hrs by flow cytometric method (reference value: 23 +/- 3%); format: functional, cell-based
ASPC1 [6] = assay: Pro-apoptotic activity in human AsPC1 cells assessed as late apoptotic cells at 100 uM after 24 hrs by annexin V/propidium iodide staining-based flow cytometric method (reference value: 0.8 +/- 0.1%); format: functional
[7] = Antioxidant activity assessed as DPPH free radical scavenging activity incubated for 30 mins in dark; format: functional
THP-1 [8] = assay: Pro-apoptotic activity in human THP1 cells assessed as early apoptotic cells at 1 uM after 24 hrs by annexin V/propidium iodide staining-based flow cytometric method (reference value: 0.4 +/- 0.1%); format: functional
ASPC1 [9] = assay: Pro-apoptotic activity in human AsPC1 cells assessed as early apoptotic cells at 100 uM after 24 hrs by annexin V/propidium iodide staining-based flow cytometric method (reference value: 0.8 +/- 0.1%); format: functional
THP-1 [10] = assay: Pro-apoptotic activity in human THP1 cells assessed as necrotic cells at 0.5 uM after 24 hrs by annexin V/propidium iodide staining-based flow cytometric method relative to control; format: functional
[11] = Cell cycle arrest in human THP1 cells assessed as accumulation at G0/G1 phase at 10 uM after 24 hrs by flow cytometric method (reference value: 51 +/- 6%); format: functional, cell-based; conditions: THP-1
ASPC1 [12] = assay: Pro-apoptotic activity in human AsPC1 cells assessed as early apoptotic cells at 1 uM after 24 hrs by annexin V/propidium iodide staining-based flow cytometric method (reference value: 0.8 +/- 0.1%); format: functional
ASPC1 [13] = assay: Pro-apoptotic activity in human AsPC1 cells assessed as early apoptotic cells at 50 uM after 24 hrs by annexin V/propidium iodide staining-based flow cytometric method (reference value: 0.8 +/- 0.1%); format: functional
[14] = Cell cycle arrest in human THP1 cells assessed as accumulation at G2/M phase at 30 uM after 24 hrs by flow cytometric method (reference value: 32 +/- 1%); format: functional, cell-based; conditions: THP-1
[15] = Cell cycle arrest in human THP1 cells assessed as decrease in cell levels at G0/G1 phase after 24 hrs by flow cytometric method; format: functional, cell-based; conditions: THP-1
THP-1 [16] = assay: Pro-apoptotic activity in human THP1 cells assessed as late apoptotic cells at 10 uM after 24 hrs by annexin V/propidium iodide staining-based flow cytometric method (reference value: 0.4 +/- 0.1%); format: functional
THP-1 [17] = assay: Pro-apoptotic activity in human THP1 cells assessed as early apoptotic cells at 30 uM after 24 hrs by annexin V/propidium iodide staining-based flow cytometric method (reference value: 0.4 +/- 0.1%); format: functional
ASPC1 [18] = assay: Pro-apoptotic activity in human AsPC1 cells assessed as early apoptotic cells at 30 uM after 24 hrs by annexin V/propidium iodide staining-based flow cytometric method (reference value: 0.8 +/- 0.1%); format: functional
ASPC1 [19] = assay: Pro-apoptotic activity in human AsPC1 cells assessed as early apoptotic cells at 75 uM after 24 hrs by annexin V/propidium iodide staining-based flow cytometric method (reference value: 0.8 +/- 0.1%); format: functional
[20] = Cell cycle arrest in human AsPC1 cells assessed as accumulation at G0/G1 phase at 50 uM after 24 hrs by flow cytometric method (reference value: 48 +/- 7%); format: functional, cell-based
[21] = Cell cycle arrest in human THP1 cells assessed as accumulation at G0/G1 phase at 1 uM after 24 hrs by flow cytometric method (reference value: 51 +/- 6%); format: functional, cell-based; conditions: THP-1
[22] = Cell cycle arrest in human AsPC1 cells assessed as accumulation at G2/M phase at 30 uM after 24 hrs by flow cytometric method (reference value: 29 +/- 5%); format: functional, cell-based
[23] = Cell cycle arrest in human THP1 cells assessed as accumulation at G0/G1 phase at 0.75 uM after 24 hrs by flow cytometric method (reference value: 51 +/- 6%); format: functional, cell-based; conditions: THP-1
ASPC1 [24] = assay: Pro-apoptotic activity in human AsPC1 cells assessed as late apoptotic cells at 1 uM after 24 hrs by annexin V/propidium iodide staining-based flow cytometric method (reference value: 0.8 +/- 0.1%); format: functional
[25] = Cell cycle arrest in human THP1 cells assessed as accumulation at S phase at 0.5 uM after 24 hrs by flow cytometric method (reference value: 16 +/- 2%); format: functional, cell-based; conditions: THP-1
THP-1 [26] = assay: Pro-apoptotic activity in human THP1 cells assessed as early apoptotic cells at 0.75 uM after 24 hrs by annexin V/propidium iodide staining-based flow cytometric method (reference value: 0.4 +/- 0.1%); format: functional
[27] = Cell cycle arrest in human THP1 cells assessed as accumulation at S phase at 3 uM after 24 hrs by flow cytometric method (reference value: 16 +/- 2%); format: functional, cell-based; conditions: THP-1
THP-1 [28] = assay: Pro-apoptotic activity in human THP1 cells assessed as necrotic cells at 0.75 uM after 24 hrs by annexin V/propidium iodide staining-based flow cytometric method relative to control; format: functional
ASPC1 [29] = assay: Pro-apoptotic activity in human AsPC1 cells assessed as necrotic cells at 10 uM after 24 hrs by annexin V/propidium iodide staining-based flow cytometric method (reference value: 2.1 +/- 0.4%); format: functional
[30] = Cell cycle arrest in human THP1 cells assessed as accumulation at G2/M phase at 10 uM after 24 hrs by flow cytometric method (reference value: 32 +/- 1%); format: functional, cell-based; conditions: THP-1
ASPC1 [31] = assay: Pro-apoptotic activity in human AsPC1 cells assessed as necrotic cells at 30 uM after 24 hrs by annexin V/propidium iodide staining-based flow cytometric method (reference value: 2.1 +/- 0.4%); format: functional
ASPC1 [32] = assay: Induction of pro-differentiation of human AsPC1 cells assessed as CD44 expression at 10 uM after 3 days by immunostaining-based micro-capillary flow cytometric method (reference value: 87 +/- 1%); format: functional
ASPC1 [33] = assay: Pro-apoptotic activity in human AsPC1 cells assessed as necrotic cells at 1 uM after 24 hrs by annexin V/propidium iodide staining-based flow cytometric method (reference value: 2.1 +/- 0.4%); format: functional
[34] = Cell cycle arrest in human THP1 cells assessed as accumulation at G2/M phase at 0.5 uM after 24 hrs by flow cytometric method (reference value: 32 +/- 1%); format: functional, cell-based; conditions: THP-1
THP-1 [35] = assay: Pro-apoptotic activity in human THP1 cells assessed as necrotic cells at 30 uM after 24 hrs by annexin V/propidium iodide staining-based flow cytometric method relative to control; format: functional

NC(=[Se])N/N=C/c1cccc2cccnc12
Activity (ASPC1 [1]): 4.1% | Activity (THP-1 [2]): 2.2% | Activity (ASPC1 [3]): 53% | Activity [4]: 50% | Activity [5]: 22.5% | Activity (ASPC1 [6]): 26.5% | IC50 [7]: 12.5 µM | Activity (THP-1 [8]): 1.5% | Activity (ASPC1 [9]): 5.7% | Activity (THP-1 [10]): 0.7% | Activity [11]: 45% | Activity (ASPC1 [12]): 0.2% | Activity (ASPC1 [13]): 0.4% | Activity [14]: 26% | Activity [15]: Dose-dependent effect | Activity (THP-1 [16]): 49% | Activity (THP-1 [17]): 8% | Activity (ASPC1 [18]): 0% | Activity (ASPC1 [19]): 0.6% | Activity [20]: 65.4% | Activity [21]: 43% | Activity [22]: 8.2% | Activity [23]: 44% | Activity (ASPC1 [24]): 0.4% | Activity [25]: 22% | Activity (THP-1 [26]): 1.1% | Activity [27]: 27% | Activity (THP-1 [28]): 0.7% | Activity (ASPC1 [29]): 1.6% | Activity [30]: 28% | Activity (ASPC1 [31]): 1.9% | Activity (ASPC1 [32]): 77% | Activity (ASPC1 [33]): 1.8% | Activity [34]: 27% | Activity (THP-1 [35]): 4%
